The values below come from patent US20240316130A1 (priority 2023, published 2024).

The subject of the test is ASS1^KO B16F10 cells. The format is cell-based, murine.

Entries after “also recorded” stand apart in the source; their conditions may differ.

`NC(=NCCCC(N)C(=O)O)NC(CC(=O)O)C(=O)O` (centres unmarked) [argininosuccinate]: the “rescue of MYXV replication by supplement” value is listed as “support myxoma virus replication; also recorded: remained rescuable”.

As to `NC(=O)NCCC[C@H](N)C(=O)O` [citrulline, L-Citrulline], the “rescue of MYXV replication by supplement” value is “not able to divide or support myxoma virus replication; also recorded: could no longer be rescued”.
